Test results as given in patent US20030092613A1, “Alpha7 nicotinic receptor peptides as ligands for beta amyloid peptides” (priority 2000, published 2003).
Like-named read-outs stand apart in the source and are kept apart here.

Tests used:
[1] = tested on: guinea pig hippocampal synaptosomes; test: ACh release from guinea pig hippocampal synaptosomes (β-amyloid inhibition of K+-evoked release); format: cell-based; settings: attenuation of β-amyloid's inhibition on potassium-evoked ACh release
Experimental: ACh release from guinea pig hippocampal synaptosomes: Synaptosomes (P2 fraction) were prepared from guinea pig hippocampus as described previously and re-suspended in a Krebs-Ringer solution containing 0.1 μM [methyl-^3H]choline chloride (NEN, Boston, Mass.) and incubated at 37° C. for 30 min. Unincorporated choline was removed by washing and the synaptosomes were resuspended in Krebs-Ringer solution to 10 mg/mL. ACh release from synaptosomes was measured using the parallel superfusion chambers (Hugo Sachs Elektronik, March-Hugstetten, Germany) according to that described earlier (Wang, H. -Y. et al Neuropeptides 1999; 33, 197-205). […]
The tissues were treated with peptides and ACh release was evoked by superfusing with 65 mM K^+-Krebs-Ringer (made by equimolar replacement of NaCl with KCl) for 30 seconds. […] The amount of ^3H in the superfusate samples was measured by liquid scintillation spectrometry.
Tritiurn efflux into the superfusate was calculated as the fraction of ^3H content in the synaptosomes at the onset of the respective collection period. […]
Data are expressed as the mean fractional ^3H release±S.E.M. Statistical differences between treatments were tested by Student's t test, two-tailed or the two-factor ANOVA as appropriate. Individual differences in the dose-response curve were evaluated by the Newman-Keuls multiple comparison test.

Biotin-huma7-5 [2] = tested on: Biotin-huma7-5; parameters: species or system human; settings: read-out: IC50, 125I-α-BTX binding to Biotin-huma7-5
α7nAChR = biological target: T1, α7nAChR (Homo sapiens, UniProt P36544); test: α7nAChR binding assay: 125I-β-amyloid1-40 binding to α7SK-N-MC membranes (SPA); settings: inhibition of 125I-β-amyloid1-40 (20 pM) binding to α7SK-N-MC membranes
T1 construct: expressed in transfected cells; host or cells: SK-N-MC (ATCC HTB-10), membranes
Experimental: α7nAChR (nicotinic acetylcholine receptor) binding assay: Membranes from recombinant SK-N-MC cells (ATCC#HTB-10) overexpressing α7nAChR (α7SK-N-MC) were prepared according to standard procedures (Wang et al, J. Biol Chem. 275, 5626-5632, 2000) except that the membranes were thoroughly washed. For each assay, membranes (20 μg) were precoupled to wheat germ agglutinin yittrium SPA beads (250 μg, Amersham) in 50 mM HEPES (pH 7.5) containing 0.01% BSA, 2 mM Mg^2+, 2 mM Ca^2+ and protease inhibitors (Boehringer Mannheim, Germany). […] At the end of the incubation (30 min), bound radioactivity was measured in a TopCount (Packard, Meriden, Conn.). Data were analyzed using Graphpad Prism software (Graphpad Software Incorporated).

[3] = biological target: huma7 peptide / β-amyloid1-40 (Homo sapiens, UniProt P36544); test: Huma7 binding assay: 125I-β-amyloid1-40 binding to immobilized huma7 peptide
Biotin-huma7-5 [4] = test: Fluo-β-amyloid1-42 binding assay to Biotin-huma7-5; parameters: species or system human
[5] = first phase, read-out: Calculated EC50 for biphasic response, EC50 - 1
[6] = second phase, read-out: Calculated EC50 for biphasic response, EC50 - 2

T1 sequence (P36544 23-502): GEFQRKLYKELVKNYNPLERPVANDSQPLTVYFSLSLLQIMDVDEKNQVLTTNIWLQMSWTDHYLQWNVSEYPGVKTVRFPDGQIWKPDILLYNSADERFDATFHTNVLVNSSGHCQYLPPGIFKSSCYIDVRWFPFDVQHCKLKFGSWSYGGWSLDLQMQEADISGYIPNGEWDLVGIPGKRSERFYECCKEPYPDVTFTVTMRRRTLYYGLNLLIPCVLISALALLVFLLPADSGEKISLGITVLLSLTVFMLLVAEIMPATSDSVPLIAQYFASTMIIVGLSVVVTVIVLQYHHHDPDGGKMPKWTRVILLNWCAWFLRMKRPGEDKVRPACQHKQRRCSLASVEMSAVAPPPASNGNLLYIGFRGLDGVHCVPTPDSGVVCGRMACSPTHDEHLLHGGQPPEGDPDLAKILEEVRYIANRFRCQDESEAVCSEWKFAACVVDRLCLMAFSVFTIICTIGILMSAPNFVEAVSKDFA
Sequence of huma7 peptide / β-amyloid1-40 (P36544 193-224): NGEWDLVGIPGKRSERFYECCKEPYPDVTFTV

Compound	IC50 (Biotin-huma7-5 [2]) [nM]	EC50 (α7nAChR; [5]) [nM]	EC50 (α7nAChR; [6]) [nM]	other results
28 (ECCK) [compound 28]				ACh rel % Inh @ 100 μM [1]: 87%
CC(C)C[C@H](NC(=O)[C@H](CCCCN)NC(=O)[C@H](CCC(N)=O)NC(=O)[C@H](Cc1c[nH]cn1)NC(=O)[C@H](Cc1c[nH]cn1)NC(=O)[C@@H](N)C(C)C)C(=O)N[C@H](C(=O)N[C@@H](Cc1ccccc1)C(=O)N[C@@H](Cc1ccccc1)C(=O)N[C@@H](C)C(=O)N[C@@H](CCC(=O)O)C(=O)N[C@@H](CC(=O)O)C(=O)N[C@H](C(=O)NCC(=O)N[C@@H](CO)C(=O)N[C@@H](CC(N)=O)C(=O)N[C@@H](CCCCN)C(=O)O)C(C)C)C(C)C [Aβ12-28]	400			
CCCN(CCC)C1Cc2c(O)ccc(O)c2CC1C (centres unmarked) [Inhibitor A]		0.133	34700	inhibition of 125I-β-amyloid1-40 binding to immobilized huma7 ([3]; 10 μM inhibitors, FIG. 2): can be inhibited
N[C@@H](Cc1ccc(O)cc1)C(=O)N1CCC[C@H]1C(=O)N[C@@H](Cc1c[nH]c2ccccc12)C(=O)N[C@@H](Cc1ccccc1)C(=O)O [YPWF peptide, YPWF]		0.00351	20.3	
Aβ42: β-amyloid peptide1-42				% Inh @ 100 μM, Fluo-β-amyloid1-42 binding to Biotin-huma7-5 (Biotin-huma7-5 [4]; 100 μM, 100 nM Fluo-β-amyloid1-42, 1 hr at 25° C.): 85%
α-bungarotoxin [α-BTX]	100			% Inh @ 100 μM, Fluo-β-amyloid1-42 binding to Biotin-huma7-5 (Biotin-huma7-5 [4]): 100%; inhibition of 125I-β-amyloid1-40 binding to immobilized huma7 [3]: can be inhibited
